For assay [1], the system named is Spontaneously hypertensive rats (SHR). In words: Acute efficacy in spontaneously hypertensive rats (SHR). The class given is in vivo, rat. In a few lines: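 Conscious male SHR with aortic telemetry implants given a single oral gavage of compound in 10% transcutol/20% Cremophor/70% water. Blood pressure sampled continuously, averaged hourly and corrected against vehicle baseline recorded the previous day; maximum peak systolic BP decrease reported at stated oral dose (mg/kg).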

Assay [2] addresses human recombinant sGC enzyme (Homo sapiens (Human), UniProt Q02108+Q02153). In words: Size Exclusion Chromatography (SEC) competition binding assay using [3H] Ex-77B as the radioligand. The conditions noted are these: [3H] Ex-77B radioligand, 24 hours at 37° C. A digest of the protocol:
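Recombinant human sGC binding measured by competition against tritiated Ex-77B radioligand, with non-specific binding defined by 1 μM unlabeled Ex-77B.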
In general terms: Size exclusion chromatography separates by hydrodynamic size, large species first.

The next assay concerns the target sGC α1/β1 heterodimer (Homo sapiens (Human), UniProt Q02108+Q02153). In words: Cell-based sGC functional assay (cyclic GMP assay for sGC activator: CASA assay). The following applies: CHO-K1/sGC cells; for Emax: CHO-K1, activity expressed as percentage of compound A (standard), read-out: % Activation; for EC50: inflection point, 4P fit, read-out: IP. A digest of the protocol: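 CHO-K1 cells stably expressing human sGC α1/β1 were pre-incubated 30 min at 25° C with or without 1 μM DETA-NO, then exposed to compound for 1 hr at 37° C with 0.5 mM IBMX and 2.5% DMSO final. Intracellular cGMP was measured by HTRF, expressed as % of reference sGC-HDA maximum; inflection point and maximum fold induction came from 4-parameter fits.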

In assay [3] the test system is hypoxia-induced pulmonary hypertension rat. In words: Acute efficacy in hypoxia-induced pulmonary hypertension in rat following intratracheal administration. The class given is in vivo. The conditions noted are these: Dose IT 0.03 mpk. A digest of the protocol: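 Male Sprague-Dawley rats with pulmonary and femoral artery telemetry, after two weeks in 10% O2 (systolic PAP 50-110 mmHg), dosed intratracheally by microsprayer (0.5 mL/kg) under light isoflurane. Day 1 vehicle, Day 2 compound, dose in mg/kg. Hourly systolic PAP and SBP changes from vehicle baseline as mean±SEM.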

The structures appear in SMILES notation.

In general, Ki refers to a dissociation constant, usually derived from enzyme kinetics or from competition with a known ligand. With `C[C@@]1(c2ccc(CCC(=O)O)cc2)C(=O)Nc2nc(-c3nn(Cc4ccccc4F)c4ncccc34)nc(N)c21` [Example 21B, (S)-3-(4-{4-amino-2-[1-(2-fluorobenzyl)-1H-pyrazolo[3,4-b]pyridin-3-yl]-5-methyl-6-oxo-6,7-dihydro-5H-pyrrolo[2,3-d]pyrimidin-5-yl}phenyl)propanoic acid], the “Category: maximum peak decrease of systolic blood pressure (SBP) in SHR” value (from here on “Category: maximum peak decrease”) in assay [1] (Dose P.O. 3 mpk) was “A (decrease in SBP in SHRs 5-25 mmHg)”. For the same compound, the inhibition constant (Ki) in assay [2] was found to be 0.064 nM. Further, at sGC α1/β1 heterodimer, the Emax worked out at 93% and the EC50 was 362 nM. In addition, the “Category: decrease in SBP (at minimum decrease in PAP of ≥15 mmHg)” value (shortened to “Category: decrease in SBP”) in assay [3] is recorded as “A (decrease in SBP 0-5 mmHg)”.

With `C[C@@]1(c2ccc(CCC(=O)O)cc2)C(=O)Nc2nc(-c3nn(CCC(F)(F)C(F)(F)F)c4cc(F)ccc34)nc(N)c21` [Example 46B, (S)-3-(4-{4-amino-2-[6-fluoro-1-(3,3,4,4,4-pentafluorobutyl)-1H-indazol-3-yl]-5-methyl-6-oxo-6,7-dihydro-5H-pyrrolo[2,3-d]pyrimidin-5-yl}phenyl)propanoic acid], the “Category: maximum peak decrease” value in assay [1] (Dose P.O. 3 mpk) is recorded as “A (decrease in SBP in SHRs 5-25 mmHg)”. In addition, the inhibition constant (Ki) in assay [2] amounted to 0.216 nM. Moreover, on sGC α1/β1 heterodimer, the Emax was determined as 95% and the EC50 was 647 nM. The “Category: decrease in SBP” value in assay [3] is “A (decrease in SBP 0-5 mmHg)”.

With `CC(C)(Cc1csc(C2(C)C(=O)Nc3nc(-c4nn(CCC(F)(F)C(F)(F)F)c5ncc(F)cc45)nc(N)c32)n1)C(=O)O` (centres unmarked) [Example 84A, 3-(2-{4-amino-2-[5-fluoro-1-(3,3,4,4,4-pentafluorobutyl)-1H-pyrazolo[3,4-b]pyridin-3-yl]-5-methyl-6-oxo-6,7-dihydro-5H-pyrrolo[2,3-d]pyrimidin-5-yl}-1,3-thiazol-4-yl)-2,2-dimethylpropanoic acid], the “Category: maximum peak decrease” value in assay [1] (Dose P.O. 1 mpk) is “C (decrease in SBP in SHRs>40 mmHg)”. Besides, the Ki in assay [2] amounted to 0.166 nM. Also, at sGC α1/β1 heterodimer, the Emax was 113% and the EC50 was 130 nM. Moreover, the “Category: decrease in SBP” value in assay [3] is on record as “A (decrease in SBP 0-5 mmHg)”.

`CC(C)(Cc1csc([C@]2(C)C(=O)Nc3nc(-c4nn(CCC(F)(F)C(F)(F)F)c5cc(Cl)ccc45)nc(N)c32)n1)C(=O)O` [Example 92B, (S)-3-(2-{4-amino-2-[6-chloro-1-(3,3,4,4,4-pentafluorobutyl)-1H-indazol-3-yl]-5-methyl-6-oxo-6,7-dihydro-5H-pyrrolo[2,3-d]pyrimidin-5-yl}-1,3-thiazol-4-yl)-2,2-dimethylpropanoic acid]: the “Category: maximum peak decrease” value in assay [1] (Dose P.O. 0.3 mpk) was “A (decrease in SBP in SHRs 5-25 mmHg)”. Moreover, the Ki in assay [2] came out at 0.175 nM. For the same compound, on sGC α1/β1 heterodimer, the Emax was 111% and the EC50 was 219 nM. Also, the “Category: decrease in SBP” value in assay [3] is “A (decrease in SBP 0-5 mmHg)”.

For the origin of these results see patent US10030027B2, “Soluble guanylate cyclase stimulators” (MERCK SHARP & DOHME CORP., priority 2015, dated 2018).
